The values that follow come from PMC5434891, “Tetramethylpyrazine blocks TFAM degradation and up-regulates mitochondrial DNA copy number by interacting with TFAM” (Bioscience Reports, 2017).

Structures are written as SMILES.

In assay [1] the target is T1, TFAM (mitochondrial transcription factor A) (Homo sapiens, UniProt Q00059).
T1 construct: endogenous TFAM in HeLa ρ+ and HCT116 cell extracts
T1 sequence (Q00059 43-246): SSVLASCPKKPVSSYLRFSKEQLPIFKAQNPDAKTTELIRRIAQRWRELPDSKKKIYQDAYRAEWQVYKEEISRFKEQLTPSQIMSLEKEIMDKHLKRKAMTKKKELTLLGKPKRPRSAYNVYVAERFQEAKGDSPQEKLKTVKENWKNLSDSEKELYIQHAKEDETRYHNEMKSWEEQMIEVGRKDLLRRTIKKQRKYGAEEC
Description: streptavidin-sepharose pull-down from cell extracts, immunoblot ([…]). It counts as cell-based. For orientation: A western blot detects proteins with antibodies after separation by electrophoresis.

The target of assay [2] is T2, TFAM (mitochondrial transcription factor A) (Homo sapiens, UniProt Q00059).
T2 sequence (Q00059 43-246): T1 sequence (Q00059 43-246)
T2 sequence (P36776 68-959 partner): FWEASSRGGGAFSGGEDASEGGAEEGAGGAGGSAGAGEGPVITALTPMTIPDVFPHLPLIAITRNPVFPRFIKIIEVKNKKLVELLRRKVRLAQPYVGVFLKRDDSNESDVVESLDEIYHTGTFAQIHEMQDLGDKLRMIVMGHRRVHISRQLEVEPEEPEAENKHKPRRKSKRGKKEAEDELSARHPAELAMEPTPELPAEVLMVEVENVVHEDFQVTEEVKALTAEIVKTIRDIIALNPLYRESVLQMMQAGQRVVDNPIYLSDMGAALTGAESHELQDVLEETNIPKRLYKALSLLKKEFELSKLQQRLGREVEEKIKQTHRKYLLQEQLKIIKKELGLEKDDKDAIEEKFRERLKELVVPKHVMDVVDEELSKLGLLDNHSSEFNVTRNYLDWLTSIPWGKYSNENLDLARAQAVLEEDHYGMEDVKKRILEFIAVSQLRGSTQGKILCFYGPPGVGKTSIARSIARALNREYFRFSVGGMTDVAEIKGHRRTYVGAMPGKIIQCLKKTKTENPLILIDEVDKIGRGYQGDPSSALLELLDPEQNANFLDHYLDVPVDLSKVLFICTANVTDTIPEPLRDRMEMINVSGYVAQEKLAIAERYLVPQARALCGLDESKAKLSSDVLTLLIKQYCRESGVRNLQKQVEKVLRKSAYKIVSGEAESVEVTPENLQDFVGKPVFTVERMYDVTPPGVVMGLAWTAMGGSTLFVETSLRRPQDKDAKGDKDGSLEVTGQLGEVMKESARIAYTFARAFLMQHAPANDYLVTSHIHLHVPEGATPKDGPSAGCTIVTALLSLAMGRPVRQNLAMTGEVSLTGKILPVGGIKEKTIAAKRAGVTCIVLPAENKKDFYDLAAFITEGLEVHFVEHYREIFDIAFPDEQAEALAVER
In words: protection of purified TFAM from degradation by purified Lon (Western blot); binding itself shown only with the biotinylated conjugate. It counts as biochemical.

Assay [3] concerns the target T3, Lon (human mitochondrial Lon protease) (Homo sapiens, UniProt P36776).
T3 construct: gene LONP1
T3 sequence (P36776 68-959): T2 sequence (P36776 68-959 partner)
In words: ADP-Glo ATPase assay with purified Lon; about […] activity left at […]. Format: biochemical. A general note: ADP-Glo turns the ADP formed in a reaction into a luminescent signal.

With `Cc1nc(C)c(COC(=O)CCCC[C@@H]2SC[C@@H]3NC(=O)N[C@@H]32)nc1C` [biotinylated TMP], the “streptavidin-sepharose pull-down from cell extracts, immunoblot (10 μM)” value in assay [1] was “TFAM was specifically pulled down only in complexes containing biotinylated-TMP and SA-sepharose”.

With `Cc1nc(C)c(C)nc1C` [TMP, 2,3,5,6-tetramethylpyrazine], in assay [2], the “protection of purified TFAM from degradation by purified Lon (Western blot); bin” value was ~ 20 mM.

For the molecule `CC1(C)CC[C@]2(C(=O)O)CC[C@]3(C)[C@H](C(=O)C=C4[C@@]5(C)C=C(C#N)C(=O)C(C)(C)[C@@H]5CC[C@]43C)[C@@H]2C1` [CDDO, 2-cyano-3,12-dioxooleana-1,9(11)-dien-28-oic acid], in assay [3], the “ADP-Glo ATPase assay with purified Lon; about 10% activity left at 200 μM” value is given as “CDDO inhibited the ATPase activity of Lon in a dose-dependent manner”.
